{
  "source": "patent US11859248B2",
  "about": "“Nucleic acid modification and identification method” (IMBA—INSTITUT FÜR MOLEKULARE BIOTECHNOLOGIE GMBH, priority 2017, dated 2024)",
  "key": {"[1]": {"biological_target": "T1, Superscript II (Moloney murine leukemia virus, UniProt P03355, D1183G/D1242N/E1221Q)", "T1 construct": "purchased Thermo Fisher Scientific", "experiment": "pH-dependent reverse transcription of 5BrU-containing RNA oligonucleotide measured by sequencing", "format": "biochemical", "experimental": "Further, it has been shown that 5BrU is taken up by cells, phosphorylated, and incorporated into nascent RNA (Larsen et al., Current Protocols in Cytometry. 12 (7.12): 7.12.1-7.12.11, 2001). […] We used […] of the synthetic RNA oligonucleotide which contained a 5BrU modification at a single central position. […] The reverse transcription was performed by Superscript II (Thermo Fisher Scientific) according to the instructions of the manufacturer using the RT DNA oligonucleotide primer (5″-[…]-3″, SEQ ID NO: 9) and 5×RT buffer for which pH was adjusted to pH7, pH8, or pH9, respectively. After reverse transcription, […] reverse transcription product was subjected to PCR amplification using KAPA Real-time Library Amplification Kit (KAPA Biosystems) according to the instructions of the manufacturer, using the DNA oligonucleotides Solexa PCR Fwd (5″-[…]-3′, SEQ ID NO: 10) and Solexa IDX rev (5′-[…]-3′, SEQ ID NO: 11; NNNNNN indicates the position of the barcode-nucleotides). The amplified libraries were sequenced by high-throughput sequencing using the Illumina MiSeq platform. The conversion rates for the 5BrU nucleotide were determined by counting the frequency of nucleotide A (adenine), G (guanine), and C (cytosine) other than the expected majority readout of T (thymine) at the position of 5BrU.\nThe pH-dependent conversion rates of 5BrU, or T in the final readout, to A (T>A conversion) show a 1.1-fold and 1.4-fold increase with an increase of pH during reverse transcription to pH 8 and pH 9 respectively compare to the background conversion rate of 3·10^−4 at pH 7 (FIG. 37C). The T>G conversion increases by 1.2- and 1.9-fold compare to the lower background conversion rate of 1·10^−4 at pH 7. In contrast, the T>C conversion rate increases by 2.2-fold and 4.3-fold compare to the background conversion rate of 3·10^−4 at pH 7. The signature of the pH dependent changes in conversion rates is characteristic for the 5BrU in the RNA and can be used to identify the number of 5BrU which are incorporated into nascent RNA during transcription."}, "[2]": {"system": "BRD4", "experiment": "Auxin-inducible degradation of AID-tagged BRD4 in K562 cells (immunoblotting)", "format": "cell-based, human", "details": "AID-tagged K562 cells expressing Tir1"}, "[3]": {"system": "MYC", "experiment": "Auxin-inducible degradation of AID-tagged MYC in HCT116 cells (immunoblotting)", "format": "cell-based, human", "details": "TIR1-expressing HCT116 MYC-AID cells"}, "[4]": {"system": "MYC", "experiment": "Auxin-inducible degradation of AID-tagged MYC in K562 cells (immunoblotting)", "format": "cell-based, human", "details": "Tir1-expressing"}, "[5]": {"system": "reverse transcriptases (Superscript II, Superscript III, Quant-seq RT)", "experiment": "Reverse transcription of synthetic thiol-nucleotide-containing RNA followed by high-throughput sequencing", "format": "biochemical", "details": "s^6G-containing RNA", "experimental": "Primer extension assays were essentially performed as described previously by Nilsen et al. (Cold Spring Harb Protoc. 2013, 1182-1185). Briefly, template RNA oligonucleotides (5L-let-7-3L or 5L-let-7-s^4Up9-3L; Dharmacon; see Table for sequences) were deprotected according to the instructions of the manufacturer and purified by denaturing polyacrylamide gel-elution. 100 μM purified RNA oligonucleotides were treated with 10 mM iodoacetamide (+IAA) or EtOH (−IAA) in standard reaction conditions (50% DMSO, 50 mM sodiumphosphate buffer, pH 8) for 15 min at 50° C. The reaction was stopped by addition of 20 mM DTT, followed by ethanol precipitation. RT primer (see Table for sequence) was 5′ radiolabeled using γ-^32P-ATP (Perkin-Elmer) and T4-polynucleotide kinase (NEB), followed by denaturing polyacrylamide gel-purification. 640 nM γ-^32P-RT primer was annealed to 400 nM 5L-let-7-3L or 5L-let-7-s^4Up9-3L in 2× annealing buffer (500 mM KCl, 50 mM Tris pH 8.3) in a PCR machine (3 min 95° C., 30 sec 85° C. Ramp 0.5° C./s, 5 min 25° C. Ramp 0.1° C./s). Reverse transcription was performed using Superscript II (Invitrogen), Superscript III (Invitrogen), or Quant-seq RT (Lexogen) as recommended by the manufacturer. For dideoxynucleotide reactions, a final concentration of 500 μM ddNTP (as indicated) was added to RT reactions. Upon completion, RT reactions were resuspended in formamide loading buffer (Gel loading buffer II, Thermo Fisher Scientific) and subjected to 12.5% denaturing polyacrylamide gel electrophoresis. Gels were dried, exposed to storage phosphor screen (PerkinElmer), imaged on a Typhoon TRIO variable mode imager (Amersham Biosciences), and quantified using ImageQuant TL v7.0 (GE Healthcare). […]\nFor sequencing analysis of synthetic RNA samples (FIG. 5) barcoded libraries were demultiplexed using Picard Tools BamIndexDecoder v1.13 allowing 0 mismatches in the barcode. […] Remaining aligned reads were converted to pileup format. […] Output table was analyzed and plotted in Excel v15.22 (Microsoft) and Prism v7.0a (GraphPad). […]"}, "[6]": {"system": "MOLM-13 cells", "experiment": "SLAM-seq transcriptional response to NVP-2 and JQ1 in MOLM-13 cells", "format": "cell-based, human", "experimental": "(§1) All SLAM-seq assays were performed at 60-70% confluency for adherent cells or 60% of the maximum cell density counted on a hemocytometer for suspension cells. 5-7 h prior to each assay, growth medium was aspirated and replaced. Unless stated otherwise, cells were pre-treated with indicated small molecule inhibitors or 100 μM IAA for 30 minutes to pre-establish full target inhibition or degradation. Newly synthesized RNA was labeled for indicated time spans (45′ or 60′) at a final concentration of 100 μM 4-thiouridine (s^4U, Carbosynth). Adherent cells were harvested by direct snap-freezing of plates on dry ice. Suspension cells were spun down and immediately snap-frozen. RNA extraction was performed using the RNeasy Plus Mini Kit (Qiagen). Total RNA was subjected to alkylation by iodoacetamide (Sigma, 10 mM) for 15′ and RNA was re-purified by ethanol precipitation. […]\n(§2) All other SLAM-seq experiments were performed in triplicates and analyzed as follows. Differential gene expression calling was performed on raw read counts with 2 T>C conversions using DESeq2 (version 1.14.1) with default settings, and with size factors estimated on corresponding total mRNA reads for global normalization. […]"}, "[7]": {"system": "Pol2-S2 phosphorylation", "experiment": "Pol2-S2 phosphorylation after BETi treatment in MV4-11 cells", "format": "cell-based, human", "details": "high-dose (1 or 5 μM)", "experimental": "(§3) Chemiluminescent detection of primary antibodies was performed using HRP-conjugated secondary antibodies (Cell Signaling Technology, catalog numbers #7074, #7076 and #7077). Alternatively, fluorescence detection of rabbit and mouse primary antibodies was performed on an Odyssey CLx Imaging System (LI-COR Biosciences) using secondary antibodies IRDye 680RD Goat anti-Rabbit IgG and IRDye 800CW Goat anti-Mouse IgG (LI-COR Biosciences).\n(§4) While these findings are in line with the promiscuous binding of BRD4 to active TSS and its physical interaction with core transcriptional machinery, they contrast selective effects observed after BETi treatment in conventional expression analysis. To define immediate transcriptional effects of BETi and compare them to BRD4 degradation, we performed SLAM-seq following treatment with different doses of the BETi JQ1 in K562 cells and the acute myeloid leukemia (AML) cell line MV4-11."}, "[8]": {"system": "K562 cells", "experiment": "SLAM-seq transcriptional response in K562 cells", "format": "cell-based, human", "experimental": "as §1, §2"}, "[9]": {"system": "MV4-11", "experiment": "SLAM-seq transcriptional response in MV4-11 cells", "format": "cell-based, human", "details": "high-dose (1 or 5 μM)", "experimental": "as §1, §2"}, "[10]": {"system": "Pol2-S2 phosphorylation", "experiment": "Pol2-S2 phosphorylation after BETi treatment in K562 cells", "format": "cell-based, human", "details": "high-dose (1 or 5 μM)", "experimental": "as §3, §4"}},
  "data": [
    {"molecule": "O=c1[nH]c(=O)n([C@@H]2O[C@H](CO)[C@@H](O)[C@H]2O)cc1Br", "note": "[5BrU, 5-Bromouridine]", "values": [
      {"measurement": "T>A background conversion rate", "setting": "[1]; pH 7", "value": "3·10^−4"},
      {"measurement": "T>C background conversion rate", "setting": "[1]; pH 7", "value": "3·10^−4"},
      {"measurement": "T>G background conversion rate", "setting": "[1]; pH 7", "value": "1·10^−4"},
      {"measurement": "increase of T>A conversion rate relative to pH 7", "setting": "[1]; pH 8", "value": 1.1, "unit": "fold"},
      {"measurement": "increase of T>C conversion rate relative to pH 7", "setting": "[1]; pH 8", "value": 2.2, "unit": "fold"},
      {"measurement": "increase of T>G conversion rate relative to pH 7", "setting": "[1]; pH 8", "value": 1.2, "unit": "fold"},
      {"measurement": "increase of T>A conversion rate relative to pH 7", "setting": "[1]; pH 9", "value": 1.4, "unit": "fold"},
      {"measurement": "increase of T>C conversion rate relative to pH 7", "setting": "[1]; pH 9", "value": 4.3, "unit": "fold"},
      {"measurement": "increase of T>G conversion rate relative to pH 7", "setting": "[1]; pH 9", "value": 1.9, "unit": "fold"}
    ]},
    {"molecule": "O=C(O)Cc1c[nH]c2ccccc12", "note": "[auxin, indole-3-acetic acid]", "values": [
      {"measurement": "time to near complete degradation of BRD4", "setting": "[2]", "value": "≤ 30 ′"},
      {"measurement": "time to complete degradation of MYC", "setting": "[3]", "value": "less than 30 ′"},
      {"measurement": "time to degradation of MYC", "setting": "[4]", "value": "less than 30 ′"}
    ]},
    {"molecule": "4-thiouridine [s^4U]", "values": [
      {"measurement": "conversion observed", "setting": "[5]", "value": "G to A conversion"}
    ]},
    {"molecule": "COC[C@@H](C)NC1CCC(Nc2cc(-c3cccc(NCC4(C#N)CCOCC4)n3)c(Cl)cn2)CC1", "note": "(some centres unmarked) [NVP-2]", "values": [
      {"measurement": "transcriptional response", "setting": "[6]; high-dose, 60 nM", "value": "globally suppressed transcription"},
      {"measurement": "transcriptional response", "setting": "[6]; intermediate dose, 6 nM", "value": "selective transcriptional responses"}
    ]},
    {"molecule": "Cc1sc2c(c1C)C(c1ccc(Cl)cc1)=N[C@@H](CC(=O)OC(C)(C)C)c1nnc(C)n1-2", "note": "[JQ1]", "values": [
      {"measurement": "Pol2-S2 phosphorylation", "setting": "[7]", "value": "globally reduced Pol2-S2 phosphorylation"},
      {"measurement": "direct transcriptional response", "setting": "[8]; 200 nM", "value": "selective deregulation of a small number of transcripts"},
      {"measurement": "direct transcriptional response", "setting": "[8]; high-dose (1 or 5 μM)", "value": "broadly suppressed transcription"},
      {"measurement": "direct transcriptional response", "setting": "[9]", "value": "broadly suppressed transcription"},
      {"measurement": "Pol2-S2 phosphorylation", "setting": "[10]", "value": "globally reduced Pol2-S2 phosphorylation"}
    ]}
  ]
}
